Entries after “also recorded” stand apart in the source; their conditions may differ.
Tests used:
[1] = tested on: NF-κB signaling in HEK293 cells; assay: NF-κB luciferase reporter gene system; type: cell-based
Description: (§1) FIGS. 10A-10C show the inhibition verification effect chart of GA-02 in Example 5, where FIG. 10A: GA-02 inhibited LPS-induced ICAM-1 expression activity. The inflammatory pathway of HMEC-1 cell was activated by 1 μg/mL LPS, to determine the effect of Celastrol and GA-02 on the expression of ICAM-1 induced by LPS. FIG. 10B: The effect of GA-02 on NF-κB signaling. The NF-κB luciferase reporter plasmid was used to transfect HEK293 cells, and the effects of Celastrol and GA-02 on the NF-κB activity induced by TNF-α were determined; FIG. 10C: qRT-PCR was used to detect mRNA relative expressions of IL-1β, TNF-α, IL-6 and MCP-1.
(§2) ICAM-1 is a downstream effector molecule regulated by NF-κB signaling pathway, and NF-κB plays an important role in regulating the expression of ICAM-1 gene. Celastrol can inhibit the activation of the LPS-induced IKK/NF-κB signaling pathway. In order to validate that GA-02 functions through the IKK/NF-κB signaling pathway, we constructed an NF-κB luciferase reporter gene system to validate the inhibitory activity of Celastrol and GA-02 on the luciferase reporter gene. […] In addition, both Celastrol and GA-02 could down-regulate the mRNA transcription levels of inflammatory factors IL-1β, TNF-α, IL-6 and MCP-1 activated by LPS.

[2] = tested on: mRNA of IL-1β, TNF-α, IL-6 and MCP-1; assay: qRT-PCR of inflammatory factor mRNA; type: cell-based; details: activated by LPS
Description: as §1, §2

[3] = tested on: high-fat-induced obese mice; assay: GA-02 in high-fat-induced obese mouse model, intraperitoneal; type: in vivo, C57BL/6 mice
Description: Animals are fed with 60% calorie high-fat diets (purchased from Bio-medicine) for 14 consecutive weeks. […] When the blood glucose is greater than 11 mmol/L and the body weight is greater than 42 g, the administration is started. […] The injection volume is 25 μL per day. In addition, a vehicle (25 μL DMSO) and positive drug (Celastrol) control are established. […] Mice in the blank group and GA-02 treatment group underwent pathological anatomy, to observe the changes in organs before and after administration. Samples are taken to prepare pathological sections.
The models are constructed by feeding high-fat diets to C57BL/6 male mice for 14 weeks. Mice with body weight greater than 42 g and blood glucose higher than 11 mmol/L are obese model mice. Mice are grouped by blood glucose and body weight. Model mice in each group are given three doses of GA-02 (high-, medium-and low-doses, 4, 12, 20 mg/kg, 25 μL/day) by intraperitoneal injection for 14 consecutive days. Mice in the blank control group are given DMSO (25 μL/day) by intraperitoneal injection, and the food intakes and body weights are recorded every day.

mildly obese mice = assay: GA-02 in mildly obese mouse model, intraperitoneal; type: in vivo, C57BL/6 mice
Description: The animal feeding and experiment method are as follows. […] The food intake and body weights of mice in each group are measured every day.

[4] = tested on: Leptin-deficient ob/ob mice; assay: GA-02 in ob/ob mice, intraperitoneal; type: in vivo; details: 20 mg/kg i.p.
Description: Eight-week-old male ob/ob and db/db mice are adapted to the environment under normal conditions for one week. The animals are grouped according to the body weight and blood glucose, 2 cages in each group, 5 animals in each cage. Mice are acclimatized with the vehicle for 3 days in the experimental group (25 μL DMSO/day) and are injected with drugs by intraperitoneal injection (20 mg/kg; 25 μL per injection). Mice in the control group are injected with the same volume of vehicle. The administration starts from 18:00 every day for 14 consecutive days. The body weight and food intake of mice are recorded every day.

[5] = tested on: mildly obese mice of weighing about 30 g; assay: GA-02 intragastric administration in mildly obese mice; type: in vivo; details: 40 mg/kg intragastric, two weeks
Description: The lean mice of about 25 g, mildly obese mice of weighing about 30 g, and obese mice of about 45 g are given blank vehicle and high-dose GA-02 (40 mg/kg) by intragastric administration, respectively.

lean mice (about 22 g) = details: mouse, in vivo, ip
Description: The animal feeding and experiment method are as follows. Six-week-old SPF-grade C57BL/6 mice (purchased from Hubei Provincial Center for Disease Control and Prevention) are fed in SPF animal house at a room temperature of 22° C., 4 mice per cage. Animals are fed with ordinary mouse feeds (purchased from) for 2 consecutive weeks. Mice are free to take food and the padding is changed every two days, and the body weights and blood glucose are monitored every week. When the body weight reaches 22 g, the administration is started. The drug is dissolved in DMSO solvent and administered by intraperitoneal injection at an injection volume of 25 μL per day. In addition, a vehicle and positive drug control are established. The food intake and body weight changes of mice in each group are measured every day.

[6] = high-dose (20 mg/kg) i.p., second day
[7] = high-dose (20 mg/kg) i.p., third day
[8] = low-, medium- and high-dose (4, 12, 20 mg/kg) i.p.
[9] = low-, medium- and high-dose (4, 12, 20 mg/kg) i.p., 14 days

With `CC1(C(=O)O)CCC2(C)CCC3(C)C(=CC(=O)C4C5(C)C=C(O)C(=O)C(C)(C)C5CCC43C)C2C1` (stereo not shown) [GA-02, 3,11-dicarbonyl-1,12-diene-2-hydroxy-oleanane-30 carboxylic acid] the “inhibition of NF-κB reporter fluorescence compared with Celastrol” value ([1]; 10 μM) was “equivalent to that of 1 μM Celastrol”, the “inhibition of the fluorescence intensity, concentration dependence” value ([1]; different concentrations) was “concentration-dependent manner” and the “mRNA transcription levels of inflammatory factors IL-1β, TNF-α, IL-6 and MCP-1” value [2] was “down-regulate”. For the same compound, the “accumulated fats in the visceral tissues” value ([3]; after administration for two weeks, dissection) was “completely dissipated”, the “average daily food intake decreased compared to the vehicle control group” value (“average daily food intake decreased” for short) ([3]; first week, high dose 20 mg/kg i.p.) was 63.2% and the “average daily food intake” value ([3]; first week, high dose 20 mg/kg i.p., vehicle 2.31±0.18 g) was 0.85 ± 0.23 g. The “average daily food intake decreased” value ([3]; first week, low dose 4 mg/kg i.p.) was 20.8%, the “average daily food intake” value ([3]; first week, low dose 4 mg/kg i.p., vehicle 2.31±0.18 g) was 1.83 ± 0.28 g and the “average daily food intake decreased” value ([3]; first week, medium dose 12 mg/kg i.p.) was 27.3%. The “average daily food intake” value ([3]; first week, medium dose 12 mg/kg i.p., vehicle 2.31±0.18 g) was 1.68 ± 0.35 g, the “body weight reduced by” value ([3]; high dose 20 mg/kg i.p., 14 days) was 26.42±0.73% and the “body weight two weeks after administration” value (shortened to “body weight two weeks”) ([3]; high dose 20 mg/kg i.p., 14 days, from 42.14±1.37 g) was 30.07 ± 1.23 g. The “lipid droplets in the liver (oil red O and H&E staining)” value ([3]; high-dose (20 mg/kg) i.p.) was “completely disappeared”, the “liver function indexes AST and ALT vs vehicle control group” value ([3]; high-dose (20 mg/kg) i.p.) was “significantly lower” and the “average daily food intake” value ([3]; high-dose (20 mg/kg) i.p., first day of administration, day 0: 2.0±0.18 g) was 0.60 ± 0.02 g. For the same compound, the body weight ([3]; high-dose (20 mg/kg) i.p., first day, from 42.09±0.42 g) was 40.98 ± 0.57 g, the “average daily food intake” value [3, 6] was 0.47 ± 0.16 g and the body weight [3, 6] was 39.94 ± 0.62 g. For the same compound, the “average daily food intake” value [3, 7] was 0.39 ± 0.11 g, the body weight [3, 7] was 39.23 ± 0.71 g and the “blood glucose tolerance (GTT) and insulin tolerance (ITT)” value ([3]; high-dose administration group) was “significantly improved”. The “effect on suppressing appetite and reducing body weight (summary)” value ([3]; intraperitoneal injection, obese mice) was “strong effect”, the “body weight reduced by” value ([3]; low dose 4 mg/kg i.p., 14 days) was 9.88±2.37% and the “body weight two weeks” value ([3]; low dose 4 mg/kg i.p., 14 days, from 42.50±1.71 g) was 38.46 ± 0.95 g. For the same compound, the “fat contents vs obese model mice (NMR body fat quantitative analysis)” value [3, 8] was “significantly lower”, the “lean body masses (NMR body fat quantitative analysis)” value [3, 8] was “no significant change” and the “fasting blood glucose level” value [3, 9] was “reduce to a normal level; also recorded: return to the normal levels”. The “weights of liver and epididymal fat compared to the vehicle control group” value [3, 9] was “decrease in a dose-dependent manner”, the “body weight reduced by” value ([3]; medium dose 12 mg/kg i.p., 14 days) was 13.15±2.73% and the “body weight two weeks” value ([3]; medium dose 12 mg/kg i.p., 14 days, from 41.41.±1.17 g) was 35.45 ± 1.15 g. The “average daily food intake decreased” value ([3]; second mention of 'first week', high dose 20 mg/kg i.p.) was 68.8%, the “average daily food intake” value ([3]; second mention of 'first week', high dose 20 mg/kg i.p., vehicle 2.47±0.13 g) was 0.70 ± 0.16 g and the “average daily food intake decreased” value ([3]; second mention of 'first week', low dose 4 mg/kg i.p.) was 37.2%. For the same compound, the “average daily food intake” value ([3]; second mention of 'first week', low dose 4 mg/kg i.p., vehicle 2.47±0.13 g) was 1.55 ± 0.12 g, the “average daily food intake decreased” value ([3]; second mention of 'first week', medium dose 12 mg/kg i.p.) was 45.3% and the “average daily food intake” value ([3]; second mention of 'first week', medium dose 12 mg/kg i.p., vehicle 2.47±0.13 g) was 1.35 ± 0.18 g. For the same compound, the “food intake and body weight vs vehicle control group” value (mildly obese mice; high-dose i.p., mild obesity group, body weight of about 28 g) was “significantly lower”, the “effect on suppressing appetite and reducing body weight (summary)” value (mildly obese mice; intraperitoneal injection, mildly obese mice) was “significant effect” and the “food intake compared with the blank vehicle group” value ([4]; 14 days) was “reduced, but it is not significant”. For the same compound, the “overall decrease in body weight” value ([4]; 14 days) was “not significant”, the body weight increase ([4]; in the first five days, later dropped to the initial body weight) was 10% and the “average daily food intake reduced by” value [5] was 30%. For the same compound, the “body weight reduced by” value [5] was 16%, the body weights (lean mice (about 22 g)) was “no decrease but an upward trend” and the “effect on the food intake and body weight (summary)” value (lean mice (about 22 g)) was “no effect”. The “food intakes compared to the vehicle control group” value (lean mice (about 22 g)) was “no significant change”.

From US20220112149A1, “DRUG DESIGN METHOD ASSOCIATED WITH NATURAL PRODUCTS, PENTACYCLIC TRITERPENOID COMPOUND, PREPARATION METHOD AND APPLICATIONS THEREOF” (Huazhong Agricultural University, priority 2020, published 2022)
